System: cows
Experiment: Abomasal infusion of xylitol in cows, milk component concentrations (Example 1)
Assay type: in vivo, cow
Procedure: To determine the weight percent total solids, wet basis, in a sample, the actual weight of total solids is determined by analyzing the sample in accordance with Method #925.23 (33.2.09) of Official Methods of Analysis, Association of Official Analytical Chemists (AOAC) (16th Ed., 1995). The weight percent total solids, wet basis, is then calculated by dividing the actual weight of total solids by the actual weight of the sample. The weight percent of true protein, wet basis, for a particular sample is calculated after first determining the wet basis weight percent of total Kjeldahl nitrogen and the wet basis weight percent of non-protein nitrogen in the sample. The wet basis weight percent of total Kjeldahl nitrogen in the sample is determined using the method referenced above. The wet basis weight percent of non-protein nitrogen (NPN) in the sample is determined in accordance with Method #991.21 (33.2.12) of Official Methods of Analysis, Association of Official Analytical Chemists (AOAC) (16th Ed., 1995). The weight percent of true protein, wet basis, in the sample is then determined by subtracting the wet basis weight percent of non-protein nitrogen in the sample from the wet basis weight percent of total Kjeldahl nitrogen in the sample. To determine the weight percent lactose, wet basis, in a liquid sample, the weight of the liquid sample is first determined. The actual weight of lactose in the liquid sample may then be determined using analysis kit number 176-303, that is available from Boehringer-Mannheim of Indianapolis, Ind. in accordance with the procedural instructions included with analysis kit number 176-303. The weight percent lactose, wet basis, in the liquid sample is then calculated by dividing the actual weight of lactose in the liquid sample by the actual weight of the liquid sample. To determine the weight percent fat, wet basis, in a sample, the actual weight of fat in the sample is determined in accordance with Method #974.09 (33.7.18) of Official Methods of Analysis, Association of Official Analytical Chemists (AOAC) (16th Ed., 1995). The weight percent fat, wet basis, is then calculated by dividing the actual weight of fat in the sample by the actual weight of the sample. In this example, xylitol was abomasally infused into three different cows at a rate of 100 grams per cow per day during a 14 day test period. The rations provided to the cows during the period extending from day 0, prior to abomasal infusion of xylitol, through day 14 of the test period were the same. The only difference in feeding of the cows between day 0 and days 1-14 of the test period were that during days 1-14 the cows were abomasally infused with the dosage of 100 grams of xylitol per cow per day. The xylitol rations were mixed with water in the ratio of 150 grams of water per 100 grams of xylitol to facilitate infusion. Milk from the three cows was collected and analyzed prior to infusion (on day 0) and also was collected and analyzed on the third, seventh and fourteenth day of the test period. The results presented in Table 1 below for each milk component are averages for the milk collected from the three different cows on day 0 and a mean of the day 3, 7, and 14 concentration values, averaged over all of the test cows, for each particular milk component.

[1] = milk, mean of days 3, 7, 14 minus day 0, 100 g/cow/day abomasal
[2] = milk, mean of days 3, 7 and 14, 100 g/cow/day abomasal infusion, average of 3 cows

`OC[C@@H](O)[C@H](O)[C@@H](O)CO` [xylitol] was tested, and the “weight percent of fat, true protein, lactose, and total solids in the milk (conclusion in words)” value (abomasal infusion, 14 day test period) was “net increase”, the “Fat, Difference (mean − day 0)” value [1] was “+0.31 Wt %” and the “Lactose, Difference (mean − day 0)” value [1] was “+0.01 Wt. %”. The “Total Solids, Difference (mean − day 0)” value [1] was “+0.39 Wt. %”, the “True Protein, Difference (mean − day 0)” value [1] was “+0.10 Wt. %” and the Fat [2] was 3.63 Wt %. The Lactose [2] was 4.66 Wt. %, the “Total Solids” value [2] was 11.82 Wt. % and the “True Protein” value [2] was 2.86 Wt. %.

Source: US6866861B1, “Method and composition for enhancing milk component concentrations” (Land O'Lakes, Inc., priority 1999, dated 2005)
